# Measured values from patent US6943187B2, “Pyrrolidine derivative hair growth compositions and uses” (GPI Nil Holdings, Inc., priority 1997, dated 2005).
# Entries after “also recorded” stand apart in the source; their conditions may differ.
# Biological target: FKBP12 (Homo sapiens, UniProt P62942)
# Assay: Inhibition of peptidyl-prolyl isomerase (rotamase) activity, chymotrypsin-coupled assay (Ki test procedure)
# Assay type: biochemical
# Conditions: apparent Ki, rotamase inhibition of FKBP, substrate N-succinyl-Ala-Ala-Pro-Phe-p-nitroanilide
# Experimental: The inhibition of the prolyl peptidyl cis-trans isomerase activity of FKBP may be measured as an indicator of this affinity.
# The cis-trans isomerization of an alanine-proline bond in a model substrate, N-succinyl-Ala-Ala-Pro-Phe-p-nitroanilide, is monitored spectrophotometrically in a chymotrypsin-coupled assay, which releases para-nitroanilide from the trans form of the substrate. The inhibition of this reaction caused by the addition of different concentrations of inhibitor is determined, and the data is analyzed as a change in first-order rate constant as a function of inhibitor concentration to yield the apparent K1 values.
# In a plastic cuvette are added 950 ml of ice cold assay buffer (25 mM HEPES, pH 7.8, 100 mM NaCl), 10 ml of FKBP (2.5 mM in 10 mM Tris-Cl pH 7.5, 100 mM NaCl, 1 mM dithiothreitol), 25 ml of chymotrypsin (50 mg/ml in 1 mM HCl) and 10 ml of test compound at various concentrations in dimethyl sulfoxide.
# Sequence of FKBP12 (P62942 whole entry, species assumed): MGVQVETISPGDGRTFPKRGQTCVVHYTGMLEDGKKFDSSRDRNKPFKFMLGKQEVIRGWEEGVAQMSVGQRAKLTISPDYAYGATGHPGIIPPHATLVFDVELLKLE
row,Compound,Ki
1,"CCC(C)(C)C(=O)C(=O)N1CCC[C@H]1C(=O)OCCCc1cc(OC)c(OC)c(OC)c1 [Compound 3, 3-(3,4,5-trimethoxyphenyl)-1-propyl (2S)-1-(3,3-dimethyl-1,2-dioxopentyl)-2-pyrrolidine-carboxylate]",200 nM
2,"CCC(C)(C)C(=O)C(=O)N1CCC[C@H]1C(=O)OCCCC1CCCCC1 [Compound 7, 3-cyclohexyl-1-propyl (2S)-1-(3,3-dimethyl-1,2-dioxopentyl)-2-pyrrolidinecarboxylate]",200 nM
3,"CCC(C)(C)C(=O)C(=O)N1CCC[C@H]1C(=O)OCCc1cc(OC)c(OC)c(OC)c1 [Compound 16, 2-(3,4,5-trimethoxyphenyl)-1-ethyl (2S)-1-(3,3-dimethyl-1,2-dioxopentyl)-2-pyrrolidine-carboxylate]",120 nM
4,"CCC(C)(C)C(=O)C(=O)N1CCC[C@H]1C(=O)OCCCc1cccnc1 [Compound 17, 3-(3-Pyridyl)-1-propyl (2S)-1-(3,3-dimethyl-1,2-dioxopentyl)-2-pyrrolidinecarboxylate]",5 nM
5,"O=C(CCC1CCCCC1)C(=O)N1CCC[C@H]1C(=O)OCCCc1ccccc1 [Compound 22, 3-phenyl-1-propyl (2S)-1-(2-cyclohexyl-ethyl-1,2-dioxoethyl)-2-pyrrolidinecarboxylate]",1020 nM
6,"O=C(CCC1CCCCC1)C(=O)N1CCC[C@H]1C(=O)OCCCc1cccnc1 [Compound 23, 3-(3-pyridyl)-1-propyl (2S)-1-(2-cyclohexylethyl-1,2-dioxoethyl)-2-pyrrolidinecarboxylate]",1400 nM
7,"CC(C)(C)C(=O)C(=O)N1CCC[C@H]1C(=O)OCCCc1cccnc1 [Compound 24, 3-(3-pyridyl)-1-propyl (2S)-1-(2-tert-butyl-1,2-dioxoethyl)-2-pyrrolidinecarboxylate]",3 nM

# Next, values leading:
row,Ki,Compound
1,170 nM,"CCC(C)(C)C(=O)C(=O)N1CCC[C@H]1C(=O)OCCCc1ccc2c(c1)OCO2 [Compound 5, 3-(4,5-methylenedioxyphenyl)-1-propyl (2S)-1-(3,3-dimethyl-1,2-dioxopentyl)-2-pyrrolidine-carboxylate]"
2,250 nM,"CCC(C)(C)C(=O)C(=O)N1CCC[C@H]1C(=O)OCCCc1cc(OC)ccc1OC [Compound 14, 3-(2,5-dimethoxyphenyl)-1-propyl (2S)-1-(3,3-dimethyl-1,2-dioxopentyl)-2-pyrrolidine-carboxylate]"
3,195 nM,"CCC(C)(C)C(=O)C(=O)N1CCC[C@H]1C(=O)OCCCc1ccccn1 [Compound 18, 3-(2-Pyridyl)-1-propyl (2S)-1-(3,3-dimethyl-1,2-dioxopentyl)-2-pyrrolidinecarboxylate]"
4,23 nM,"CCC(C)(C)C(=O)C(=O)N1CCC[C@H]1C(=O)OCCCc1ccncc1 [Compound 19, 3-(4-Pyridyl)-1-propyl (2S)-1-(3,3-dimethyl-1,2-dioxopentyl)-2-pyrrolidinecarboxylate]"
5,95 nM,"CC(C)(C)C(=O)C(=O)N1CCC[C@H]1C(=O)OCCCc1ccccc1 [Compound 21, 3-phenyl-1-propyl (2S)-1-(2-tert-butyl-1,2-dioxoethyl)-2-pyrrolidinecarboxylate]"
6,5 nM,"CCC(C)(C)C(=O)C(=O)N1CCC[C@H]1C(=O)OCCC(c1ccccc1)c1ccccc1 [Compound 25, 3,3-diphenyl-1-propyl (2S)-1-(3,3-dimethyl-1,2-dioxopentyl)-2-pyrrolidinecarboxylate]"
7,5 nM,"CC(C)(C)C(=O)C(=O)N1CCC[C@H]1C(=O)OCCC(c1ccccc1)c1ccccc1 [Compound 28, 3,3-Diphenyl-1-propyl (2S)-1-(3,3-dimethyl-1,2-dioxobutyl)-2-pyrrolidinecarboxylate]"

# Test system: C57 black 6 mice
# Assay: In vivo hair generation test, Experiment A (topical, shaved area)
# Conditions: 30 μM topical in 20% propylene glycol, 3 applications over 5 days, after six weeks; listed as GPI 1046
# Source text: Care was taken not to nick or cause abrasion to the underlaying dermal layers. The animals were in anagen growth phase, as indicated by the pinkish color of the skin. […] Hair growth was quantitated by the percent of shaved area covered by new hair growth during this time period.
row,Compound,hair regrowth in the shaved area
1,"CCC(C)(C)C(=O)C(=O)N1CCC[C@H]1C(=O)OCCCc1cccnc1 [Compound 17, 3-(3-Pyridyl)-1-propyl (2S)-1-(3,3-dimethyl-1,2-dioxopentyl)-2-pyrrolidinecarboxylate]","essentially, complete hair regrowth; also recorded: essentially complete hair regrowth"

# Test system: hair growth
# Assay: not given
# Conditions: topical, but not oral, application; cited from earlier work
row,Compound,stimulation of hair growth
1,C=CC[C@@H]1/C=C(\C)C[C@H](C)C[C@H](OC)[C@H]2O[C@@](O)(C(=O)C(=O)N3CCCC[C@H]3C(=O)O[C@H](/C(C)=C/[C@@H]3CC[C@@H](O)[C@H](OC)C3)[C@H](C)[C@@H](O)CC1=O)[C@H](C)C[C@@H]2OC [FK506],stimulates hair growth in a dose-dependent manner
